According to patent US11339193B2, “CDP protein secretion inhibitors” (KEZAR LIFE SCIENCES, priority 2018, dated 2022):
Where two headings read alike, the source gives them in different places. Numbered stars: 1 amine (or outer) side, 2 acyl side, 3 side chain; on linkers, the order of the positions; unused ones are H or OH. Square brackets hold non-standard residues; d marks the D form. Peptide text beside a SMILES is read from it. NMeAla(5-Cl-benzothien-3-yl) = CN[C@@H](Cc1csc2ccc(Cl)cc12)C(=O)O; X14 = CC#CCn1cc(C[C@@H](C(=O)[*:2])N(C)[*:1])c2ccccc21; X16 = CN([C@@H](Cc1csc2c(Cl)cccc12)C(=O)[*:2])[*:1]; Ala(1-cyclohexenyl) = N[C@@H](CC1=CCCCC1)C(=O)O; Butanoyl(2R-oxy,4-CN) = N#CCC[C@@H](O)C(=O)O; Abu(4,4,4-F3) = N[C@@H](CC(F)(F)F)C(=O)O; X12 = O=C([C@H](CC1=CCCC1)N[*:1])[*:2]; NMeL = CN[C@@H](CC(C)C)C(=O)O; NMeA = CN[C@@H](C)C(=O)O

How the values were obtained:
Assay type in all cases: cell-based
HER3ss-Gluc = assay: HER3ss assay; conditions: HEK-293T T-rex cells, transient transfection, doxycycline, 24 h; read-out: HER3 ss IC50
Method: The mature domain of secreted luciferase from Gaussia princeps (GLuc) was cloned into pcDNA5/FRT/TO. The signal sequence plus four amino acids of the mature domain from HER3 ([…]) (SEQ ID NO:8) were cloned upstream of GLuc mature domain and used in transient transfection experiment. HEK-293T T-rex cells were cultured in Dulbecco's modified Eagle's medium with 10% FBS at 5% CO2. Cells were plated 1×10e6 cells per well in a 6-well plate and incubated for 6 h. Cells were transiently transfected with HER3ss-Gluc using Lipofectamine 2000 (Invitrogen). After overnight incubation, transfected cells were replated in a clear-bottomed, black 96-well plate at a density of 20,000 cells per well. Six hours after plating, the cells were treated with doxycycline (1 μg/ml) and increasing concentrations of the indicated compounds for 24 h. Secreted luciferase in the conditioned media was quantified by luminescence using the BioLux Gaussia Luciferase Assay Kit (New England Biolabs, Ipswich, Mass., USA) and a SpectraMax M5 plate reader (Molecular Devices).

[1] = system: U266B1 multiple myeloma cell line; assay: U266 assay (cell viability, Celltiter-Glo); conditions: Homo sapiens, U-266; I.A.
Method: Cells were plated in 384-well tissue culture plates and treated with compound dilutions in DMSO/media. Plates were incubated at 37° C., 5% CO2 for 48 hours. After 48 hours, Celltiter-Glo@ (Promega) was added to each well and luciferase signal was quantified using Tecan Infinite M1000 Pro for cell viability determination.

[2] = system: PD1-ss+10aa/Gaussia Luciferase; assay: Dox induced PD1-ss-Gluc assay; conditions: Flp-In 293 T-REx cells, doxycycline, 24 hours; read-out: PD1ss Gluc IC50
Text: Dox Induced PD1-ss-Gluc Assay
(§1) Flp-In 293 T-REx™ cells were transfected with pcDNA™5/FRT/TO plasmid inserted with cDNA encoding Gaussia Luciferase fused to the 3′ end of cDNA encoding PD1 signal sequence plus 10 amino acids (N-[…]-C) (SEQ ID NO:3). Transfected cells were selected for resistance to the selectable markers Hygromycin and Blasticidin to create a stable cell line that contained the PD1-ss+10aa/Gaussia Luciferase cDNA insert whose expression was regulated under the T-REx™ system. The day before assay, cells were trypsinized and plated in 384-well tissue culture plates. The next day, compound dilutions in DMSO/media containing doxycycline were added to the wells and incubated at 37° C., 5% CO2.

[3] = system: NCI-H929 multiple myeloma cell line; assay: H929 assay (cell viability, Celltiter-Glo); conditions: Homo sapiens, NCI-H929, read-out: H929 EC50
Method: The human multiple myeloma cell line NCI-H929 was cultured in Advanced RPMI 1640 media (Gibco@) supplemented with 6% fetal bovine serum, 2 mM Glutamine, and 1× Penicillin/Streptomycin. On the day of assay, cells were resuspended in RPMI 1640 media supplemented with 10% fetal bovine serum, 2 mM Glutamine, and 1× Penicillin/Streptmycin and plated in 384-well tissue culture plates and treated with compound dilutions in DMSO/media. Plates were incubated at 37° C., 5% CO2 for 48 hours. After 48 hours, Celltiter-Glo@ (Promega) was added to each well and luciferase signal was quantified using Tecan Infinite M1000 Pro for cell viability determination.

[4] = system: Prl-ss+10aa/Gaussia Luciferase; assay: Prl-ss-Gluc assay (constitutively active or 24 hr Dox inducible); conditions: read-out: Prl IC50
Text: Constitutively Active Prl-ss-Gluc Assay
Flp-In 293 T-REx™ cells were transfected with pcDNA™5/FRT plasmid inserted with cDNA encoding Gaussia Luciferase fused to the 3′ end of cDNA encoding Prl signal sequence plus 10 amino acids (N-[…]-C) (SEQ ID NO:4). Transfected cells were selected for resistance to the selectable markers Hygromycin and Blasticidin to create a stable cell line that constitutively expressed the Prlss+10aa/Gaussia Luciferase fusion protein. The day before assay, cells were trypsinized and plated in 384-well tissue culture plates. The next day, culture media was removed from the wells and replaced with fresh media. Compound dilutions in DMSO/media were added to the wells and incubated at 37° C., 5% CO2.
24 hr Dox Inducible Prl-ss-Gluc Assay
as §1, with “Prl” for “PD1”, “NO:5).” for “NO:3).”, “Prl-ss+10aa/Gaussia” for “PD1-ss+10aa/Gaussia”

[5] = system: TNFα-FL/Gaussia Luciferase; assay: Dox induced TNFα-FL-Gluc assay; conditions: read-out: TNFa FL Gluc IC50
Text: Dox Induced TNFα-FL-Gluc Assay
Flp-In 293 T-REx™ cells were transfected with pcDNA™5/FRT/TO plasmid inserted with cDNA encoding Gaussia Luciferase fused to the 3′ end of cDNA encoding full length TNFα (amino acids 1-233). Transfected cells were selected for resistance to the selectable markers Hygromycin and Blasticidin to create a stable cell line that contained the TNFα-FL/Gaussia Luciferase cDNA insert whose expression was regulated under the T-REx™ system. The day before assay, cells were trypsinized and plated in 384-well tissue culture plates. The next day, compound dilutions in DMSO/media containing doxycycline were added to the wells and incubated at 37° C., 5% CO2.

[6] = Flp-In 293 T-REx cells, 24 hours
[7] = Flp-In 293 T-REx cells, doxycycline, 24 hours

| SMILES | IC50 (HER3ss-Gluc) [µM] | EC50 [1] [µM] | IC50 [2] [µM] | EC50 ([3]; 48 hours, cell viability) [µM] | IC50 [4, 6] [µM] | IC50 [5, 7] [µM] | EC50 ([3]; I.A.) [µM] | IC50 ([4]; I.A.) [µM] | IC50 ([5]; I.A.) [µM] |
| --- | --- | --- | --- | --- | --- | --- | --- | --- | --- |
| CC(C)C[C@@H]1NC(=O)[C@H](Cc2csc3c(Cl)cccc23)N(C)C(=O)[C@H](CC(C)C)NC(=O)[C@H](CC(C)C)N(C)C(=O)[C@H](CC(F)(F)F)NC(=O)[C@@H](CCC#N)OC(=O)[C@H](C)N(C)C1=O [C-94] (cyclo(L[NMeA][Butanoyl(2R-oxy,4-CN)][Abu(4,4,4-F3)][NMeL]L[X16])) | 0.074 | > 25 | 0.425 | 6.05 | 19.3 | 1.24 |  |  |  |
| CC#CCn1cc(C[C@H]2C(=O)N[C@@H](CC(C)C)C(=O)N(C)[C@@H](C)C(=O)O[C@H](CCC#N)C(=O)N[C@@H](CC(F)(F)F)C(=O)N(C)[C@@H](CC(C)C)C(=O)N[C@@H](CC(F)(F)F)C(=O)N2C)c2ccccc21 [C-91] (cyclo(L[NMeA][Butanoyl(2R-oxy,4-CN)][Abu(4,4,4-F3)][NMeL][Abu(4,4,4-F3)][X14])) | 0.124 | > 25 | 0.274 | 4.88 | 9.8 | 0.986 |  |  |  |
| CC(C)C[C@@H]1NC(=O)[C@H](Cc2csc3ccc(Cl)cc23)N(C)C(=O)[C@H](CC2=CCCC2)NC(=O)[C@H](CC(C)C)N(C)C(=O)[C@H](CC2=CCCCC2)NC(=O)[C@@H](CCC#N)OC(=O)[C@H](C)N(C)C1=O [C-86] (cyclo(L[NMeA][Butanoyl(2R-oxy,4-CN)][Ala(1-cyclohexenyl)][NMeL][X12][NMeAla(5-Cl-benzothien-3-yl)])) | 0.01 | > 25 | 0.567 |  |  |  | > 25 | > 25 | > 25 |
| CC(C)C[C@@H]1NC(=O)[C@H](Cc2csc3ccc(Cl)cc23)N(C)C(=O)[C@H](CC2=CCCC2)NC(=O)[C@H](CC(C)C)N(C)C(=O)[C@H](CC(F)(F)F)NC(=O)[C@@H](CCC#N)OC(=O)[C@H](C)N(C)C1=O [C-96] (cyclo(L[NMeA][Butanoyl(2R-oxy,4-CN)][Abu(4,4,4-F3)][NMeL][X12][NMeAla(5-Cl-benzothien-3-yl)])) | 0.006 | > 25 | 0.472 | 8.4 |  | 3.84 |  | > 25 |  |
| CC(C)C[C@@H]1NC(=O)[C@H](Cc2csc3ccc(Cl)cc23)N(C)C(=O)[C@H](CC(F)(F)F)NC(=O)[C@H](CC(C)C)N(C)C(=O)[C@H](CC(C)C)NC(=O)[C@@H](CCC#N)OC(=O)[C@H](C)N(C)C1=O [C-92] (cyclo(L[NMeA][Butanoyl(2R-oxy,4-CN)]L[NMeL][Abu(4,4,4-F3)][NMeAla(5-Cl-benzothien-3-yl)])) | 0.098 | > 25 | 0.813 | 9.88 |  | 3.86 |  | > 25 |  |
